Data: publication PMC5717258, “Bioaccumulation of pharmaceuticals and personal care product chemicals in fish exposed to wastewater effluent in an urban wetland” (Scientific Reports, 2017)
Like-named read-outs stand apart in the source and are kept apart here. Blank lines part the entries; values can stand above or below the molecule they belong to.

How the values were obtained:
[1] = Description: (§1) Plasma from 9 individual male fish (500 µL/individual) was pooled to yield 3 samples for PPCP analysis. […] Plasma from 6 individual carp (2.3–3.5 g) from each location was selected for PPCP analysis. […] Plasma samples were frozen (−80 °C) until analysis.
(§2) A total of 20 fish plasma samples from the pooled caged fish (7) and the wild fish (13) along with 12 water samples were selected for analysis. […] A full list of analytes is provided in Supplementary Information. Mass labelled^13C-, or deuterated surrogate internal standards were used for quantification of all analytes via the isotope dilution/surrogate standard quantitation method. Prior to extraction and/or clean-up procedures, aqueous samples were adjusted to pH 2.0, spiked with extraction surrogate standards, then adjusted to pH 4 using tetrasodium ethylenediamine-tetraacetate dihydrate. Plasma samples (2.3–2.5 g) were spiked with extraction surrogate standards, sonicated with 20 mL acetonitrile, then diluted with ultra-pure water to 200 mL. The extracts were cleaned up by solid phase extraction using Oasis HLB cartridges (Waters Ltd. Mississauga ON), filtered, and analyzed by liquid chromatography-electrospray ionization-tandem mass spectrometry (LC/ESI-MS/MS) in positive or negative ionization mode. The analysis of the complete list of analytes (SI Table S1) required a total of five instrumental runs.

[2] = remark: listed apart in the source
Description: as §1, §2
(§3) Quality assurance steps included analysis of lab blanks for water and plasma along with matrix recovery spikes. […] Detection limits (DLs) were defined as lowest calibration level adjusted to the maximal sample size or 3 times the signal of the noise in the target channel converted to an equivalent sample, whichever was greater. […] Where analytes were detected in two or more samples of the same species or series of water samples, non-detect values were converted to ½ the DL value for reporting purposes.

[3] = Table S7; ref Meador et al. (2016); cited from earlier work
in vivo = settings: goldfish (Carassius auratus), in vivo
Source text: Cages were visited weekly, and fish (13/cage) were fed during the visits (20 g/cage). All animal experiments were in accordance with CCAC guidance and approved by the GLLFAS-WSTD Animal Care Committee (Government of Canada). Further details on the caging and preparation of the fish and animal care protocols are provided in Simmons et al.[32]. […] A fourth site, Jordan Harbour (JH), a widening of 20 Mile Creek adjacent to Lake Ontario near Jordan ON, served as a reference site. Mass and fork length were measured and recorded. Plasma collection and storage is described in the SI. Plasma of caged goldfish was divided for proteome, metabolome and PPCP analysis. Due to limited volumes, pooled samples of plasma from 25 individual fish (50 µL/individual) was pooled to yield one sample from at each location for PPCP analysis.
as §2, §3

[4] = Table S7; ref Meador et al. (2016); cited from earlier work; remark: listed apart in the source
[5] = Plasma bioaccumulation factor (BAFP), goldfish; format: in vivo, goldfish (Carassius auratus); settings: CPM2; water sample of August 2012
Description: Bioaccumulation factor (BAFP) was calculated as concentration in fish plasma (ng/g × 1000) divided by concentration in water (ng/L). Two widely used modeling approaches for predicting organic contaminant bioaccumulation were assessed: the BCF-BAF model for whole body BAFs[53] and the fish-plasma concentration calculation of Huggett et al.[35] modified by Berninger et al.[54]. The latter involves estimating an octanol-water partition coefficient (Kow) adjusted for fraction ionized (log D), using the pKa value to adjust log Kow[54] taking into account the pH of CPM waters. Further information on the calculation of log D, blood-water partitioning (PBW), and plasma concentrations (FPC) is given in the SI.

[6] = Jordan Harbour brown bullhead, wet weight
[7] = Jordan Harbour carp 54, Nov 7, 2011, male, wet weight
[8] = Jordan Harbour carp 73, Nov 7, 2011, female, wet weight
[9] = Jordan Harbour carp 74, Nov 7, 2011, male, wet weight
[10] = Jordan Harbour carp 75, Nov 7, 2011, female, wet weight
[11] = Jordan Harbour carp 78, Nov 7, 2011, male, wet weight
[12] = Jordan Harbour carp 82, Nov 7, 2011, female, wet weight
[13] = carp (Cyprinus carpio), in vivo
[14] = female, carp (Cyprinus carpio), in vivo
[15] = male, carp (Cyprinus carpio), in vivo
[16] = male, goldfish (Carassius auratus), in vivo

Structure (SMILES): CC(C(=O)O)c1ccc(CC(C)(C)O)cc1 (stereo not drawn) [2-Hydroxy-ibuprofen]
plasma concentration, JH-BB [1, 6]: < 30.4 ng/g
plasma concentration, CPM-C 01 ([2]; Cootes carp 01, 2011, male, wet weight): < 16.9 ng/g
plasma concentration, CPM-C 2 ([2]; Cootes carp 2, Sep 27, 2011, male, wet weight): < 23 ng/g
plasma concentration, CPM-C 10 ([2]; Cootes carp 10, Sep 28, 2011, female, wet weight): < 24.2 ng/g
plasma concentration, CPM-C 13 ([2]; Cootes carp 13, Sep 28, 2011, female, wet weight): < 24.9 ng/g
plasma concentration, CPM-C 20 ([2]; Cootes carp 20, 2011, male, wet weight): < 17.2 ng/g
plasma concentration, CPM-C 36 ([2]; Cootes carp 36, Oct 3, 2011, female, wet weight): < 22.9 ng/g
plasma concentration, JH-C 54 [2, 7]: < 16.9 ng/g
plasma concentration, JH-C 73 [2, 8]: < 16.5 ng/g
plasma concentration, JH-C 74 [2, 9]: < 17 ng/g
plasma concentration, JH-C 75 [2, 10]: < 24.1 ng/g
plasma concentration, JH-C 78 [2, 11]: < 38.5 ng/g
plasma concentration, JH-C 82 [2, 12]: 17 ng/g

Structure (SMILES): Cn1c(=O)c2c(ncn2C)n(C)c1=O [Caffeine]
plasma concentration, JH-BB [1, 6]: < 5.7 ng/g
Salmon (whole body) concentration [3]: 18 ng/g
concentration at 21 days (in vivo; plasma concentration, CPM1 caged, CPM1, 07-2014, pooled plasma, wet weight): 3.38 ng/g
concentration at 21 days (in vivo; plasma concentration, CPM2 caged, CPM2, 07-2014, pooled plasma, wet weight): 1.46 ng/g
concentration at 21 days (in vivo; plasma concentration, CPM3 caged, CPM3, 07-2014, pooled plasma, wet weight): 1.53 ng/g
concentration at 21 days (in vivo; plasma concentration, JH caged, Jordan Harbour reference site, 07-2014, pooled plasma, wet weight): < 3 ng/g
Sculpin (whole body) concentration [4]: 13 ng/g
plasma concentration, JH-C 54 [2, 7]: < 3.18 ng/g
plasma concentration, JH-C 73 [2, 8]: < 3.09 ng/g
plasma concentration, JH-C 74 [2, 9]: < 3.19 ng/g
plasma concentration, JH-C 75 [2, 10]: < 4.52 ng/g
plasma concentration, JH-C 78 [2, 11]: < 3.13 ng/g
plasma concentration, JH-C 82 [2, 12]: < 3.01 ng/g
plasma concentration, CPM wild-02 ([2]; wild goldfish sample 02, 2012, wet weight): 1.525 ng/g
plasma concentration, CPM wild-03 ([2]; wild goldfish sample 03, 2012, wet weight): 1.565 ng/g

BAFP, CPM2 goldfish caged [5]: 38 L/kg
plasma concentration, JH-BB ([1]; Brown Bullhead (Ameiurus nebulosus), in vivo): 0.622 ng/g
concentration at 21 days (in vivo; caged goldfish plasma, range of concentrations): 0.16 to 1.37 ng/g
concentration at 21 days (in vivo; plasma concentration, CPM1 caged): 1.1 ng/g
concentration at 21 days (in vivo; plasma concentration, CPM2 caged): 0.146 ng/g
concentration at 21 days (in vivo; plasma concentration, CPM3 caged): 0.344 ng/g
concentration at 21 days (in vivo; plasma concentration, JH caged): < 0.3 ng/g
Cootes carp plasma, range of concentrations [2, 13]: 0.16 to 1.23 ng/g
plasma concentration, carp, this study (mean) [2, 13]: 0.70 ng/g wet weight or ng/mL for plasma
plasma concentration, CPM-C 10 [2, 14]: 1.23 ng/g
plasma concentration, CPM-C 13 [2, 14]: 1.14 ng/g
plasma concentration, CPM-C 36 [2, 14]: 0.698 ng/g
plasma concentration, JH-C 73 [2, 14]: 0.155 ng/g
plasma concentration, JH-C 75 [2, 14]: 0.474 ng/g
plasma concentration, JH-C 82 [2, 14]: 0.151 ng/g
plasma concentration, CPM-C 01 [2, 15]: 0.158 ng/g
plasma concentration, CPM-C 2 [2, 15]: 0.799 ng/g
plasma concentration, CPM-C 20 [2, 15]: 0.162 ng/g
plasma concentration, JH-C 54 [2, 15]: 0.159 ng/g
plasma concentration, JH-C 74 [2, 15]: 0.160 ng/g
plasma concentration, JH-C 78 [2, 15]: 0.252 ng/g
plasma concentration, CPM wild-01 [2, 16]: 1.37 ng/g
plasma concentration, CPM wild-02 [2, 16]: 0.188 ng/g
plasma concentration, CPM wild-03 [2, 16]: 0.157 ng/g
plasma concentration, goldfish, this study (mean) [2, 16]: 0.57 ng/g wet weight or ng/mL for plasma
wild goldfish plasma, range of concentrations [2, 16]: 0.15 to 1.1 ng/g
Structure (SMILES): CC1CCc2cc(F)cc3c(=O)c(C(=O)O)cn1c23 (stereo not drawn) [Flumequine]
